ChEMBL document CHEMBL3885861, “Open TG-GATES”

Organism: Rattus norvegicus
Assay: Open TG-GATES - Regimen: Single
Assay type: toxicity, organism-based, Sprague-Dawley
Design: regimen Single, gender Male, age 6 weeks
Settings: in vivo, po, 50 mg/kg, route gavage, dose level Middle; for APTT / Bas / Eos / Fbg / Hb / Ht / Lym / MCH / MCHC / MCV / Mono / Neu / PT / Plat / RBC / Ret / WBC: tissue Blood; for KIDNEY_L / KIDNEY_R / KIDNEY_TOTAL: tissue Kidney; for LIVER: tissue Liver; for A/G / ALP / ALT / AST / BUN / CRE / Ca / Cl / DBIL / GLC / IP / K / LDH / Na / PL / RALB / TBIL / TC / TG / TP / gamma-GTP: tissue Plasma

Structure (SMILES): S=C=Nc1cccc2ccccc12 [1-NAPHTHYLISOTHIOCYANATE]
- TERMINAL_BW (3 h): 223.2 g
- APTT (3 h): 18.3 s
- Bas (3 h): 0.2%
- Eos (3 h): 1%
- Fbg (3 h): 237 mg/dL
- Hb (3 h): 13.7 g/dL
- Ht (3 h): 38.1%
- Lym (3 h): 76.6%
- MCH (3 h): 21.4 pg
- MCHC (3 h): 35.9%
- MCV (3 h): 59.7 fL
- Mono (3 h): 2.6%
- Neu (3 h): 18.8%
- PT (3 h): 11.6 s
- Plat (3 h): 118.2 x10_4/uL
- RBC (3 h): 639.2 x10_4/ul
- Ret (3 h): 8%
- WBC (3 h): 87.7 x10_2/uL
- KIDNEY_L (3 h): 0.9 g
- KIDNEY_R (3 h): 1 g
- KIDNEY_TOTAL (3 h): 1.9 g
- LIVER (3 h): 9.8 g
- A/G (3 h): 1.7
- ALP (3 h): 1022.2 IU/L
- ALT (3 h): 45 IU/L
- AST (3 h): 80.2 IU/L
- BUN (3 h): 9.6 mg/dL
- CRE (3 h): 0.4 mg/dL
- Ca (3 h): 10.8 mg/dL
- Cl (3 h): 102.8 meq/L
- DBIL (3 h): 0.1 mg/dL
- GLC (3 h): 240.6 mg/dL
- IP (3 h): 10.1 mg/dL
- K (3 h): 3.9 meq/L
- LDH (3 h): 179.8 IU/L
- Na (3 h): 141.4 meq/L
- PL (3 h): 154.2 mg/dL
- RALB (3 h): 3.6 g/dL
- TBIL (3 h): 0.1 mg/dL
- TC (3 h): 85.2 mg/dL
- TG (3 h): 77.4 mg/dL
- TP (3 h): 5.7 g/dL
- gamma-GTP (3 h): 0.8 IU/L
- TERMINAL_BW (6 h): 220.8 g
- APTT (6 h): 19.2 s
- Bas (6 h): 0%
- Eos (6 h): 0.4%
- Fbg (6 h): 239.8 mg/dL
- Hb (6 h): 13.9 g/dL
- Ht (6 h): 38.9%
- Lym (6 h): 79.2%
- MCH (6 h): 21.3 pg
- MCHC (6 h): 35.6%
- MCV (6 h): 59.8 fL
- Mono (6 h): 2.2%
- Neu (6 h): 17%
- PT (6 h): 12 s
- Plat (6 h): 126.8 x10_4/uL
- RBC (6 h): 651.4 x10_4/ul
- Ret (6 h): 7%
- WBC (6 h): 80.1 x10_2/uL
- KIDNEY_L (6 h): 1 g
- KIDNEY_R (6 h): 1 g
- KIDNEY_TOTAL (6 h): 1.9 g
- LIVER (6 h): 9.3 g
- A/G (6 h): 1.5
- ALP (6 h): 936.2 IU/L
- ALT (6 h): 36.6 IU/L
- AST (6 h): 72.8 IU/L
- BUN (6 h): 8.6 mg/dL
- CRE (6 h): 0.4 mg/dL
- Ca (6 h): 10.6 mg/dL
- Cl (6 h): 101.8 meq/L
- DBIL (6 h): 0.2 mg/dL
- GLC (6 h): 321.6 mg/dL
- IP (6 h): 10.2 mg/dL
- K (6 h): 4.2 meq/L
- LDH (6 h): 208 IU/L
- Na (6 h): 140.2 meq/L
- PL (6 h): 153.8 mg/dL
- RALB (6 h): 3.5 g/dL
- TBIL (6 h): 0.2 mg/dL
- TC (6 h): 84.6 mg/dL
- TG (6 h): 69.8 mg/dL
- TP (6 h): 5.8 g/dL
- gamma-GTP (6 h): 1 IU/L
- TERMINAL_BW (9 h): 214.5 g
- APTT (9 h): 17.9 s
- Bas (9 h): 0%
- Eos (9 h): 0.6%
- Fbg (9 h): 254 mg/dL
- Hb (9 h): 13.7 g/dL
- Ht (9 h): 38.2%
- Lym (9 h): 76.8%
- MCH (9 h): 22.3 pg
- MCHC (9 h): 35.9%
- MCV (9 h): 62 fL
- Mono (9 h): 2.2%
- Neu (9 h): 19.2%
- PT (9 h): 12 s
- Plat (9 h): 133.4 x10_4/uL
- RBC (9 h): 615.6 x10_4/ul
- Ret (9 h): 7.2%
- WBC (9 h): 80 x10_2/uL
- KIDNEY_L (9 h): 0.9 g
- KIDNEY_R (9 h): 0.9 g
- KIDNEY_TOTAL (9 h): 1.8 g
- LIVER (9 h): 8.8 g
- A/G (9 h): 1.6
- ALP (9 h): 826 IU/L
- ALT (9 h): 34.2 IU/L
- AST (9 h): 60 IU/L
- BUN (9 h): 10 mg/dL
- CRE (9 h): 0.4 mg/dL
- Ca (9 h): 10.7 mg/dL
- Cl (9 h): 102 meq/L
- DBIL (9 h): 0.2 mg/dL
- GLC (9 h): 321.8 mg/dL
- IP (9 h): 10 mg/dL
- K (9 h): 4.3 meq/L
- LDH (9 h): 150.4 IU/L
- Na (9 h): 141.2 meq/L
- PL (9 h): 147.8 mg/dL
- RALB (9 h): 3.5 g/dL
- TBIL (9 h): 0.2 mg/dL
- TC (9 h): 79.8 mg/dL
- TG (9 h): 72 mg/dL
- TP (9 h): 5.8 g/dL
- gamma-GTP (9 h): 1.2 IU/L
- TERMINAL_BW (24 h): 214.8 g
- APTT (24 h): 19.7 s
- Bas (24 h): 0.6%
- Eos (24 h): 0.4%
- Fbg (24 h): 357 mg/dL
- Hb (24 h): 14.3 g/dL
- Ht (24 h): 37.9%
- Lym (24 h): 48%
- MCH (24 h): 22.4 pg
- MCHC (24 h): 37.7%
- MCV (24 h): 59.2 fL
- Mono (24 h): 4.6%
- Neu (24 h): 44.6%
- PT (24 h): 12.2 s
- Plat (24 h): 131.9 x10_4/uL
- RBC (24 h): 639.6 x10_4/ul
- Ret (24 h): 6%
- WBC (24 h): 118.9 x10_2/uL
- KIDNEY_L (24 h): 1 g
- KIDNEY_R (24 h): 1 g
- KIDNEY_TOTAL (24 h): 2 g
- LIVER (24 h): 9.2 g
- A/G (24 h): 1.3
- ALP (24 h): 1257.2 IU/L
- ALT (24 h): 153.8 IU/L
- AST (24 h): 366.6 IU/L
- BUN (24 h): 10.4 mg/dL
- CRE (24 h): 0.4 mg/dL
- Ca (24 h): 10.4 mg/dL
- Cl (24 h): 98 meq/L
- DBIL (24 h): 0.9 mg/dL
- GLC (24 h): 177.6 mg/dL
- IP (24 h): 8.6 mg/dL
- K (24 h): 3.5 meq/L
- LDH (24 h): 617.6 IU/L
- Na (24 h): 141.4 meq/L
- PL (24 h): 218.2 mg/dL
- RALB (24 h): 3.2 g/dL
- TBIL (24 h): 1.1 mg/dL
- TC (24 h): 107 mg/dL
- TG (24 h): 64.8 mg/dL
- TP (24 h): 5.7 g/dL
- gamma-GTP (24 h): 6.2 IU/L
